# Measurements: patent publication US9567301B2, “Pyrrol-1-yl benzoic acid derivatives useful as myc inhibitors” (Whitehead Institute for Biomedical Research, priority 2012, dated 2017)
# Biological target: c-Myc/Max/Ebox DNA (Homo sapiens, UniProt P01106)
# Assay: c-Myc/Max/Ebox DNA AlphaScreen assay
# Assay type: binding
# Design: An exemplary assay uses full-length human c-Myc and Max proteins; his6 (cleaved yes); made in house
# Conditions: c-Myc/Max/Ebox DNA AlphaScreen; NA: inactive under assay conditions; read-out: Biochemical IC50
# Protocol: This protocol was used to generate the biochemical data in Table 2 and FIG. 11. The primary AlphaScreen assay is amenable to 384-well and 1536-well plate formats for HTS. Human his6-c-Myc and his6-Max were used with biotinylated DNA containing a single Ebox sequence (biotin[…]) purchased from MWG Operon. Free c-Myc was generated from his6-c-Myc through thrombin cleavage of the his6 tag. For 384-well plate assays, 10 μL of a 2× solution of free c-Myc (25 nM final), Ni++-coated Acceptor Bead (25 μg/ml final), and biotinylated Ebox oligo (10 nM final) were added to 384-well plates with a Biotek EL406 liquid handler. 100 nL of compounds from stock plates were added by pin transfer using a Janus Workstation (PerkinElmer), allowing the compounds to interact with c-Myc prior to c-Myc binding with Max. In the current assay, DMSO was not allowed to exceed 2% v/v of the assay. 10 μl of 2× master mix containing streptavidin-coated donor beads (25 μg/ml final) and his6-Max (1.25 nM final) were added. AlphaScreen measurements were performed on an Envision 2104 (PerkinElmer) utilizing the manufacturer's protocol. The assay can also be performed in 1536-plate format with 8 μL total volume using two 4 μL additions (instead of […] and 10 μL respectively).
# Assays are performed with minor modifications from the manufacturer's protocol (PerkinElmer). Both master mixes were made in room temperature assay buffer (50 mM HEPES, 150 mM NaCl, 0.2% w/v BSA, 0.02% w/v Tween20, 40 μg/ml glycogen, 500 μM DTT, pH 8.0, DTT and glycogen added fresh). Alpha beads were added to respective master solutions and wrapped in foil. All subsequent steps were performed in low light conditions. Solution 1: 2× solution of components with final concentrations of cMyc (25 nM), Ni-coated Acceptor Bead (25 μg/ml), and biotinylated Ebox oligo (10 nM). Solution 2: 2× solution of streptavidin-coated donor beads (25 μg/ml final) and his6-Max (1.25 nM final). […] Solution 1 were added to 384-well plate (AlphaPlate-384, PerkinElmer) with Biotek EL406 liquid handler and the plates were centrifuged at 1000 rpm for 1 minute. 100 nL of compounds from stock plates were added by pin transfer using a Janus Workstation. 10 μL Solution 2 were added with the liquid handler. Plates were sealed with foil to block light exposure and prevent evaporation. Plates were centrifuged at 1000 rpm for 1 minute followed by 2 hour incubation. AlphaScreen measurements were performed on an Envision 2104 utilizing the manufacturer's protocol. Excitation was at 680 nm for donor bead release of singlet oxygen and emission was read with a bandpass filter from 520-620 nm. Glycogen: Roche Diagnostics #10901393001. Plate 1536: Perkin Elmer, 6004350. Plate 384: Perkin Elmer, 6005350. Nickel-His Alpha Beads: 6760619R.
# c-Myc/Max/Ebox DNA, sequence (P01106 16-454): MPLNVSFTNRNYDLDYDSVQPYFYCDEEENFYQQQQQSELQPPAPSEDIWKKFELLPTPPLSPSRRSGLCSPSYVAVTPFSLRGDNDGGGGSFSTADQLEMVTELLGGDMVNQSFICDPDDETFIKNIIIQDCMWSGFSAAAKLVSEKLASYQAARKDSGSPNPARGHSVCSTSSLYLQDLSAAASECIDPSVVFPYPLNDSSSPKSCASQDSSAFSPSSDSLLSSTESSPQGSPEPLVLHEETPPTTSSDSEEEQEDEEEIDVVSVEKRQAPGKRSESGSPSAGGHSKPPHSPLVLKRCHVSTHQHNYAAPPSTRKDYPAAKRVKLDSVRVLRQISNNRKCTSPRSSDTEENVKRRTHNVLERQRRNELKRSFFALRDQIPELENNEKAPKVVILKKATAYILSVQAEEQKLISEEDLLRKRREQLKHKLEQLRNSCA
row,Compound,IC50 [µM]
1,CN(C)c1ccc(/N=N/c2ccccc2C(=O)O)cc1 [Compound 154],43.4
2,Cc1ccc(C)n1-c1cc(C(=O)N/N=C/c2ccc(C(=O)O)o2)ccc1C(=O)O [Compound 124],0.708
3,COc1cc(-n2c(C)ccc2C)c(Cl)cc1C(=O)O [Compound 131],493
4,Cc1ccc(C)n1-c1cc(C(=O)N/N=C/c2ccccc2)ccc1C(=O)O [Compound 121],7.69
5,CCCC(=O)Nc1ccc(N2CCCCCC2)cc1C(=O)O [Compound 31],172
6,Cc1ccc(C)n1-c1cc(C(=O)N/N=C/c2c[nH]c3ccc(F)cc23)ccc1C(=O)O [Compound 95],23.3
7,Cc1cc(/C=C2\C(=O)NC(=O)N(c3ccc(F)cc3)C2=O)c(C)n1-c1ccccc1C(=O)O [Compound 55],58.5
8,Cc1cc2c(n1-c1ccc(C(=O)O)cc1)CCCCC2 [Compound 48],51.8
9,Cc1ccc(C)n1-c1cc(C(=O)N/N=C/c2ccc3nccnc3c2)ccc1C(=O)O [Compound 104],7.11
10,Cc1ccc(C)n1-c1cc(C(=O)O)ccc1O [Compound 4],34.1
11,CC1(C)CC(=O)c2cc(CC(=O)O)n(-c3ccc(C(=O)O)cc3)c2C1 [Compound 51],523
12,CC1(C)CC(=O)c2cc(CC(=O)O)n(-c3cccc(C(=O)O)c3)c2C1 [Compound 43],197
13,COc1cc(C(=O)O)c(-n2c(C)ccc2C)cc1OC [Compound 37],62.7
14,Cc1cc(/C=C2\C(=O)NC(=O)N(C)C2=O)c(C)n1-c1cccc(C(=O)O)c1 [Compound 46],76.8
15,Cc1c2ccccc2c(C)n1-c1ccccc1C(=O)O [Compound 137],57.8
16,Cc1ccc(C)n1-c1cc(C(=O)N/N=C\c2cc(F)c(C(=O)O)c(F)c2)ccc1C(=O)O [Compound 118],0.48
17,Cc1cc(/C=C(\C#N)C(=O)Nc2ccc(O)cc2)c(C)n1-c1ccccc1C(=O)O [Compound 52],36.2
18,Cc1ccc(C(=O)O)cc1-n1c(C)cc(CN2CCC(N)(C(=O)O)C2)c1C (stereo not shown) [Compound 44],194
19,O=C(O)c1cc(-n2cccc2)ccc1N1CCOCC1 [Compound 30],273
20,COc1ccc(/C=N/NC(=O)c2ccc(C(=O)O)c(-n3c(C)ccc3C)c2)c(OC)c1 [Compound 85],37.9

row,Compound,IC50 [µM]
1,Cc1ccc(C)n1-c1ccc(C(=O)O)cc1O [Compound 7],23.5
2,Cc1c(-c2ccccc2)c2c(n1-c1ccc(C(=O)O)cc1)CCCC2 [Compound 49],42
3,CCCCC(=O)Nc1ccc(N2CCC(C)CC2)c(C(=O)O)c1 [Compound 32],881
4,Cc1ccccc1N1C(=O)NC(=O)/C(=C\c2cc(C)n(-c3ccccc3C(=O)O)c2C)C1=O [Compound 53],2510
5,COC(=O)c1ccc(-n2c(C)ccc2C)cc1O [Compound 18],1.54
6,Cc1ccc(C)n1-c1ccc(Cl)cc1C(=O)O [Compound 35],31.3
7,Cc1ccc(C)n1-c1cc(C(=O)N/N=C/c2ccc(O)cc2)ccc1C(=O)O [Compound 83],6.85
8,Cc1ccc(C)n1-c1cc(C(=O)NCCc2ccc(O)c(O)c2)ccc1C(=O)O [Compound 73],33.4
9,Cc1cc(/C=C2\SC(=O)N(C)C2=O)c(C)n1-c1ccccc1C(=O)O [Compound 56],103
10,Cc1ccc(C)n1-c1cccc(C(=O)O)c1 [Compound 2],74.5
11,Cc1cccc(C)c1-c1ccccc1C(=O)O [Compound 60],89.1
12,Cc1ccc(C)n1-c1cc(C(=O)N/N=C/c2cccnc2)ccc1C(=O)O [Compound 86],5.97
13,Cc1cc(/C=N/NC(N)=S)c(C)n1-c1ccccc1C(=O)O [Compound 54],16.3
14,Cc1cc2c(n1-c1ccc(C(=O)O)cc1)CC(C)(C)CC2=O [Compound 50],446
15,CC(=O)Nc1ccc(N2CCCC(C)C2)c(C(=O)O)c1 (stereo not shown) [Compound 34],191
16,Cc1ccc(C)n1-c1cc(C(=O)N/N=C/c2c[nH]cn2)ccc1C(=O)O [Compound 78],1.75
17,Cc1cc(/C=C(/C#N)C(=O)NCCc2c[nH]c3ccccc23)c(C)n1-c1ccccc1C(=O)O [Compound 58],135
18,Cc1ccc(C)n1-c1cc(C(=O)NNC(=O)c2cccc(C(=O)O)c2)ccc1C(=O)O [Compound 166],1.89
19,Cc1ccc(C)n1-c1cc(C(=O)N/N=C/c2cc(C(=O)O)ccc2F)ccc1C(=O)O [Compound 125],1.25
20,Cc1ccc(C)n1-c1ccc(C(=O)O)cc1 [Compound 3],287

row,Compound,IC50 [µM]
1,Cc1ccc(C)n1-c1cc(C(=O)N/N=C/c2ccc(-c3cncnc3)cc2)ccc1C(=O)O [Compound 102],26.5
2,Cc1ccc(C)n1-c1cc(C(=O)N/N=C\c2ccc(O)c(F)c2)ccc1C(=O)O [Compound 117],6.52
3,Cc1ccc(C)n1-c1cc(C(=O)N/N=C/c2cccc(B(O)O)c2)ccc1C(=O)O [Compound 82],2.95
4,CC(=O)Nc1ccc(N2CCCCCC2)c(C(=O)O)c1 [Compound 33],171
5,Cc1ccc(C)n1-c1cc(C(=O)N/N=C/c2ccc(S(=O)(=O)O)o2)ccc1C(=O)O [Compound 84],0.534
6,Cc1ccc(C(=O)O)cc1-n1c(C)cc(CN2C[C@H](N(C)C)C[C@H]2CO)c1C [Compound 45],115
7,Cc1ccc(C)n1-c1ccc(Br)cc1C(=O)O [Compound 36],64.7
8,Cc1cc(/C=C2\SC(=O)N(C)C2=O)c(C)n1-c1ccccc1C(=O)O [Compound 57],92.2
9,Cc1cc(/C=C(/C#N)c2nc3ccccc3[nH]2)c(C)n1-c1ccccc1C(=O)O [Compound 59],125
10,Cc1cc2c(n1-c1cccc(C(=O)O)c1)CC(C)(C)CC2=O [Compound 42],697
11,Cc1ccc(-c2ccccc2)n1-c1ccccc1C(=O)O [Compound 41],324
12,CC(=O)c1cc(C)n(-c2ccc(C(=O)O)cc2)c1C [Compound 47],166
13,Cc1ccc(C)n1-c1cc(C(=O)N2CCc3ccc(C(=O)O)cc3C2)ccc1C(=O)O [Compound 165],0.343
14,Cc1ccc(C)n1-c1cc(C(=O)N/N=C/c2cccc(C(=O)O)c2)ccc1C(=O)O [Compound 120],0.393
15,O=C(O)c1ccccc1-n1c(-c2ccccc2)cc2c1CCCC2=O [Compound 29],252
16,Cc1ccc(C)n1-c1cc(Cl)ccc1C(=O)O [Compound 38],63.7
17,Cc1ccc(C)n1-c1ccc(C(=O)O)c(O)c1 [Compound 5],4.29
18,Cc1cc(C(=O)N/N=C/c2ccccc2)c(C)n1-c1ccccc1C(=O)O [Compound 61],49.2
19,CN1CCN(c2ccccc2C(=O)O)CC1 [Compound 156],346
20,CC(=O)Nc1ccc(-n2c(C)ccc2C)c(C(=O)O)c1 [Compound 40],34.4

# Test system: H2171 cells
# Assay: Cell viability assay (ATPlite), H2171
# Assay type: cell-based, human
# Conditions: Homo sapiens, NCI-H2171, 72 h, cell viability, three days, ATPlite; NA: inactive under assay conditions
# Protocol: This assay was used for the H2171 and MM1S cell data shown in Table 2, and for the Jurkat (an immortalized line of human T lymphocyte cells), Ly1 (OCI-Ly1 human non-Hodgkin lymphoma cell line), Ly4 (OCI-Ly4 human non-Hodgkin lymphoma cell line), H2172 (NCI-H2172 human non-small cell lung cancer cell line), and CA-46 (a human Burkitt's lymphoma cell line) cell data shown in Table 3 and FIG. 12. Cells were counted and adjusted to 60,000 cells/mL. Using a Biotek EL406, 50 μL of cells are media were distributed into 384 well white plates from Thermo. Immediately after plating, compound in DMSO was distributed to plates. For large plate sets, cells were returned to 37° C. incubator while not in use.
# Compounds were added to plates using a 100 nL 384 well pin transfer manifold on a Janus workstation. Stocks were arrayed in 10 point quadruplicate dose response in DMSO stock in 384 well Greiner compound plates. After addition of compound, plates were incubated for three days in a 37° C. incubator.
# Cell viability was read out using ATPlite from Perkin Elmer. Plates were removed from the incubator and brought to room temperature prior to use. Lyophilized powder was resuspended in lysis buffer and diluted 1:2 with DI water. 25 μL of this solution was added to each well using the Biotek liquid handler. Plates were sealed with adherent aluminum seals prior to vortexing and spinning down at 1000 g for 1 minute. Plates were incubated for 15 minutes at room temperature before signal was read on an Envision Plate Reader.
row,Compound,EC50 [µM]
1,COc1cc(-n2c(C)ccc2C)c(Cl)cc1C(=O)O [Compound 131],3400
2,COc1ccc(/C=N/NC(=O)c2ccc(C(=O)O)c(-n3c(C)ccc3C)c2)c(OC)c1 [Compound 85],97.3
3,Cc1ccc(C)n1-c1ccc(C(=O)O)cc1O [Compound 7],122
4,CC(=O)OCOC(=O)c1ccc(C(=O)N/N=C/c2c[nH]cn2)cc1-n1c(C)ccc1C [Compound 108],0.556
